Test results as given in patent US6413958B2, “4-hydroxy-1,8-naphthyridine-3-carboxamides as antiviral agents” (Pharmacia & Upjohn Company, priority 2000, dated 2002).
pIC50: −log10 of the molar value.

Assays:
HCMV polymerase = biological target: T1, HCMV polymerase (Human cytomegalovirus, UniProt P08546); assay: HCMV polymerase assay (scintillation proximity assay, modified version); format: biochemical; conditions: modified HCMV polymerase SPA; for pIC50: compounds diluted in 100% DMSO, 4.5 mM DTT
T1 construct: made in house; host or cells: recombinant baculovirus-infected SF-9 cells
T1 sequence (P08546 whole entry): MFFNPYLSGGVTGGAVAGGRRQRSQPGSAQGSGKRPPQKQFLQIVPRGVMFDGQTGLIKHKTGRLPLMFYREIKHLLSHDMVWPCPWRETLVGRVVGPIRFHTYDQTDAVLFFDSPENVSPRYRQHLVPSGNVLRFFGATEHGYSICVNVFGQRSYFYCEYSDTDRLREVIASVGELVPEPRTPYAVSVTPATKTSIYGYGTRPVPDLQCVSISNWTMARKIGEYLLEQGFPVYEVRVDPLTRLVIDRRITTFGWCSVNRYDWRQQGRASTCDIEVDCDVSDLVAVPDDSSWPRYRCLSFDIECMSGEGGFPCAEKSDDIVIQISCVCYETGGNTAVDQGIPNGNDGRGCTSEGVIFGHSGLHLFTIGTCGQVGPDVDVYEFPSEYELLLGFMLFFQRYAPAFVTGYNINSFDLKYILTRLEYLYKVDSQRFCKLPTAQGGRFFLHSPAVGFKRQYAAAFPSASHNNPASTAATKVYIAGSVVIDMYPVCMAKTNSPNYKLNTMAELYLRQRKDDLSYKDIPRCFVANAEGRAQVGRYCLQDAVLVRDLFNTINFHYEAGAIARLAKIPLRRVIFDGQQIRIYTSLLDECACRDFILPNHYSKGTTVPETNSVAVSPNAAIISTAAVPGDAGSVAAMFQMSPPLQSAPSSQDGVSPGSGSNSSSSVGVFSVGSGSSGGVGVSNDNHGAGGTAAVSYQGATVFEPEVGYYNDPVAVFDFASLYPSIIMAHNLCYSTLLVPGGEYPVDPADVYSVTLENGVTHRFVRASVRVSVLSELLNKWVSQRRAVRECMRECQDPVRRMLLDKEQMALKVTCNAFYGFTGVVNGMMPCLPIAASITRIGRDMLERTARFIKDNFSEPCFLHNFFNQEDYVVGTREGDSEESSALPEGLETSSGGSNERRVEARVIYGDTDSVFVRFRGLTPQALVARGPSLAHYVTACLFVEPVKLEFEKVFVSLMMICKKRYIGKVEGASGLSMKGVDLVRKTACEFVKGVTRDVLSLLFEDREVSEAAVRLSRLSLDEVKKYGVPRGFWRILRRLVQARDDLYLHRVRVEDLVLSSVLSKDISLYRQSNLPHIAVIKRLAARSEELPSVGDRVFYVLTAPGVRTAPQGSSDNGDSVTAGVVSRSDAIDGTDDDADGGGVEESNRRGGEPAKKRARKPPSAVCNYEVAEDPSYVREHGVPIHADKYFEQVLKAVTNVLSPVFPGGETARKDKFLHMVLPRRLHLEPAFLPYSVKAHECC
Experimental: The HCMV polymerase assay is performed using a scintillation proximity assay (SPA) as described in several references, such as N. D. Cook, et al., Pharmaceutical Manufacturing International, pages 49-53 (1992); K. Takeuchi, Laboratory Practice, September issue (1992); U.S. Pat. No. 4,568,649 (1986); which are incorporated by reference herein. Reactions are performed in 96-well plates. The assay is conducted in 100 μl volume with 5.4 mM HEPES (pH 7.5), 11.7 mM KCl, 4.5 mM MgCl2, 0.36 mg/ml BSA, and 90 nM ^3H-dTTP. Assays are run with and without CHAPS, (3-[(3-cholamidopropyl)-dimethylammonio]-1-propane-sulfonate) at a final concentration of 2 mM. HCMV polymerase is diluted in enzyme dilution buffer containing 50% glycerol, 250 mM NaCl, 10 mM HEPES (pH 7.5), 100 μg/ml BSA, and 0.01% sodium azide. The HCMV polymerase, which is expressed in recombinant baculovirus-infected SF-9 cells and purified according to literature procedures, is added at 10% (or 10 μl) of the final reaction volume, i.e., 100 μl. Compounds are diluted in 50% DMSO and 10 μl are added to each well. Control wells contain an equivalent concentration of DMSO. Unless noted otherwise, reactions are initiated via the addition of 6 nM biotinylated poly(dA)-oligo(dT) template/primer to reaction mixtures containing the enzyme, substrate, and compounds of interest. Plates are incubated in a 25° C. or 37° C. H2O bath and terminated via the addition of 40 μl/reaction of 0.5 M EDTA (pH 8) per well. Reactions are terminated within the time-frame during which substrate incorporation is linear and varied depending upon the enzyme and conditions used, i.e., 30 min. for HCMV polymerase. Ten μl of streptavidin-SPA beads (20 mg/ml in PBS/10% glycerol) are added following termination of the reaction. Plates are incubated 10 min. at 37° C., then equilibrated to room temperature, and counted on a Packard Topcount. Linear regressions are performed and IC50's are calculated using computer software.
A modified version of the above HCMV polymerase assay is performed as described above, but with the following changes: Compounds are diluted in 100% DMSO until final dilution into assay buffer. In the previous assay, compounds are diluted in 50% DMSO. 4.5 mM dithiotherotol (DTT) is added to the polymerase buffer. […] All results are listed as Polymerase IC50 (μM) values. In Table 1, the term “nd” refers to activity data not determined.

Row | Structure (SMILES) | pIC50 (HCMV polymerase) | melting point | HCMV polymerase inhibition (HCMV polymerase; at 20 μm)
1 | Cc1nc2ncc(C(=O)NCc3ccc(Cl)cc3)c(O)c2cc1C#CCO [Example 3, N-(4-chlorobenzyl)-4-hydroxy-6-(3-hydroxy-1-propynyl)-7-methyl[1,8]naphthyridine-3-carboxamide] | 5.68 | 279 to 281 °C (dec.) | 
2 | Cc1ccc2c(O)c(C(=O)NCc3ccc(Cl)cc3)cnc2n1 [Example 1, N-(4-chlorobenzyl)-4-hydroxy-7-methyl[1,8]naphthyridine-3-carboxamide] | 4.59 | 280 to 285 °C (dec.) | 
3 | COC(=O)c1cc2c(O)c(C(=O)NCc3ccc(Cl)cc3)cnc2nc1C [Example 5, Methyl 6-{[(4-chlorobenzyl)amino]carbonyl}-5-hydroxy-2-methyl[1,8]naphthyridine-3-carboxylate] | 5.07 | 265 to 267 °C | 

Other lines, results leading:

Row | pIC50 (HCMV polymerase) | melting point | HCMV polymerase inhibition (HCMV polymerase; at 20 μm) | Structure (SMILES)
4 |  | 269 to 270 °C | 39% inhibition | Cc1nc2ncc(C(=O)NCc3ccc(Cl)cc3)c(O)c2cc1Br [Example 2, 6-bromo-N-(4-chlorobenzyl)-4-hydroxy-7-methyl[1,8]naphthyridine-3-carboxamide]
5 | 4.86 | 276 to 277 °C |  | Cc1nc2ncc(C(=O)NCc3ccc(Cl)cc3)c(O)c2cc1I [Example 4, N-(4-chlorobenzyl)-4-hydroxy-6-iodo-7-methyl[1,8]naphthyridine-3-carboxamide]
